Measurements from patent publication US20260306460A1, “COMPOSITION FOR REMOVING AND INHIBITING SENESCENT CELLS, AND USES THEREOF” (LIFECEUTIX CO., LTD., priority 2023, published 2026).

Columns and labels:
[1] = tested on: naturally aged mice; experiment: Anti-aging evaluation in naturally aged mice, Example 31, Table 55; format: in vivo, mouse; settings: for Femur Ctsk mRNA / Kidney Agtr1a mRNA / Liver IL6 mRNA / Liver MMP3 mRNA / Liver p16 mRNA / Open Field Test Time in Center: untreated = 100%; for Heart Sur2a mRNA / Joint Col2a1 mRNA / Skin Col1a1 mRNA / Skin SDF1 mRNA: untreated = 1.0; for Muscle Mass: untreated 0.64 g; for Fat Mass: untreated 0.82 g; for Cataract incidence: untreated 83%;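 for all read-outs here: Vehicle-dosed control mice received solution alone at matching volume, values compare test-compound-treated aged mice against that control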
Procedure: After the end of drug administration, the method described in each example below was performed. […] The mRNA amounts of p16, MMP3, and IL6 after natural aging was induced were calculated as 100% and compared with the mRNA amounts of p16, MMP3, and IL6 after treatment with the test compound. In addition, an open field test for the analysis of aging-related frailty, agtr1a mRNA analysis for kidney damage and disease evaluation, col1a1 and SDF1 mRNA analysis for skin aging evaluation such as wrinkles/loss of elasticity/hyperpigmentation, col2a1 mRNA analysis for evaluating joint aging such as osteoarthritis, sur2a mRNA analysis for evaluating cardiac aging such as decreased cardiac load resistance, ctsk mRNA analysis for evaluating bone diseases due to aging such as osteoporosis, muscle tissue weight for analyzing sarcopenia, fat tissue weight for analyzing lipoatrophy, and cataract incidence analysis were performed in mice. For cataract incidence analysis, the drug was administered twice a week under the conditions specified above, and biweekly examinations were conducted until death.

[2] = tested on: bleomycin-induced pulmonary fibrosis mice; experiment: Bleomycin-induced pulmonary fibrosis mice, Example 31, Table 56; format: in vivo, mouse; settings: untreated = 100%
Procedure: (§1) The control group was administered only the solution in the same volume. After the end of drug administration, the method described in each example below was performed. Liver, kidney, skin, knee joint, heart, and femur tissues were collected from mice in which natural aging was induced in the same manner as in Examples 7-2 and 7-6 of WO2023-085787 A1. Lung tissues were collected from mice in which pulmonary fibrosis was induced using the same method as in Example 24-1. Liver tissues were collected from mice in which hepatic fibrosis was induced using the same method as in Example 26, and total RNA was extracted. qRT-PCR was performed and analyzed using the synthesized cDNA. […] The mRNA amounts of p16, MMP3, and IL6 after natural aging was induced were calculated as 100% and compared with the mRNA amounts of p16, MMP3, and IL6 after treatment with the test compound. In addition, an open field test for the analysis of aging-related frailty, agtr1a mRNA analysis for kidney damage and disease evaluation, col1a1 and SDF1 mRNA analysis for skin aging evaluation such as wrinkles/loss of elasticity/hyperpigmentation, col2a1 mRNA analysis for evaluating joint aging such as osteoarthritis, sur2a mRNA analysis for evaluating cardiac aging such as decreased cardiac load resistance, ctsk mRNA analysis for evaluating bone diseases due to aging such as osteoporosis, muscle tissue weight for analyzing sarcopenia, fat tissue weight for analyzing lipoatrophy, and cataract incidence analysis were performed in mice. For cataract incidence analysis, the drug was administered twice a week under the conditions specified above, and biweekly examinations were conducted until death.
The table below quantitatively presents the evaluation results for each item in mice with bleomycin-induced pulmonary fibrosis, untreated and treated with the test compound.

[3] = tested on: carbon tetrachloride-induced liver fibrosis mice; experiment: Carbon tetrachloride-induced liver fibrosis mice, Example 31, Table 57; format: in vivo, mouse; settings: CCl4-induced liver fibrosis mice, untreated = 100%
Procedure: as §1

[4] = tested on: senescent cells; experiment: Viability of senescent cells (CellTiter-Glo), Example 17, Table 13; settings: Homo sapiens, read-out: Survival (%)
Procedure: Cells induced to undergo senescence by doxorubicin treatment were treated with test compound at designated concentrations and measured using the CellTiter-Glo Luminescent Cell Viability Assay (Promega).

[5] = tested on: senescent A549 cells; experiment: Viability of senescent A549 cells (CellTiter-Glo), Example 18, Table 15; settings: Homo sapiens, A549, read-out: Survival (%)
Procedure: Senescence-induced cancer cells treated with doxorubicin were treated with the test compound at designated concentrations, and cell viability was measured using the CellTiter-Glo Luminescent Cell Viability Assay (Promega).

SMILES	viability at 1.1 µM [4] [%]	viability at 10 µM [4] [%]	viability at 30 µM [4] [%]	viability at 1.1 µM [5] [%]	viability at 10 µM [5] [%]	viability at 30 µM [5] [%]	other results
CC1(C)[C@H]2COc3ccc4ccccc4c3[C@H]2N=C2SC(c3ccccc3)=C(c3ccccc3)N21 [LX-5201]	102	88.3	37.7	102	61.5	3.8	Femur Ctsk mRNA [1]: 53%; Heart Sur2a mRNA [1]: 1.5 fold; Joint Col2a1 mRNA [1]: 1.9 fold; Kidney Agtr1a mRNA [1]: 58%; Liver IL6 mRNA [1]: 43%; Liver MMP3 mRNA [1]: 67%; Liver p16 mRNA [1]: 58%; Open Field Test Time in Center [1]: 168%; Skin Col1a1 mRNA [1]: 2.1 Fold; Skin SDF1 mRNA [1]: 2.3 fold; Muscle Mass [1]: 0.77 g; Fat Mass [1]: 0.97 g; Cataract incidence [1]: 49%; Lung p16 mRNA [2]: 75 (±4.2) %; Col1a1 mRNA [2]: 74 (±6.3) %; Liver p16 mRNA [3]: 64 (±8.4) %; Col1a1 mRNA [3]: 59 (±8.7) %
CN[C@H](CC(C)C)C(=O)N[C@H]1C(=O)N[C@@H](CC(N)=O)C(=O)N[C@H]2C(=O)N[C@H]3C(=O)N[C@H](C(=O)N[C@H](C(=O)O)c4cc(O)cc(O)c4-c4cc3ccc4O)[C@H](O)c3ccc(c(Cl)c3)Oc3cc2cc(c3O[C@@H]2O[C@H](CO)[C@@H](O)[C@H](O)[C@H]2O[C@H]2C[C@](C)(N)[C@H](O)[C@H](C)O2)Oc2ccc(cc2Cl)[C@H]1O [LX-5424, Vancomycin]	106	62.5	10.5	98.9	74.3	21.8	Femur Ctsk mRNA [1]: 70%; Heart Sur2a mRNA [1]: 2.3 fold; Joint Col2a1 mRNA [1]: 1.5 fold; Kidney Agtr1a mRNA [1]: 68%; Liver IL6 mRNA [1]: 45%; Liver MMP3 mRNA [1]: 59%; Liver p16 mRNA [1]: 72%; Open Field Test Time in Center [1]: 191%; Skin Col1a1 mRNA [1]: 1.6 Fold; Skin SDF1 mRNA [1]: 1.7 fold; Muscle Mass [1]: 0.67 g; Fat Mass [1]: 0.84 g; Cataract incidence [1]: 76%; Lung p16 mRNA [2]: 70 (±3.5) %; Col1a1 mRNA [2]: 73 (±2.7) %; Liver p16 mRNA [3]: 79 (±5.6) %; Col1a1 mRNA [3]: 51 (±4.7) %
CCN(CC1C(=O)C2CCN1CC2)C(=O)C(Cl)(Cl)Cl (stereo not shown) [LX-5702]	97.5	5.2		91.8	38.1	3.9	Femur Ctsk mRNA [1]: 61%; Heart Sur2a mRNA [1]: 2.5 fold; Joint Col2a1 mRNA [1]: 2.4 fold; Kidney Agtr1a mRNA [1]: 49%; Liver IL6 mRNA [1]: 49%; Liver MMP3 mRNA [1]: 55%; Liver p16 mRNA [1]: 47%; Open Field Test Time in Center [1]: 211%; Skin Col1a1 mRNA [1]: 1.8 Fold; Skin SDF1 mRNA [1]: 2.0 fold; Muscle Mass [1]: 0.70 g; Fat Mass [1]: 0.85 g; Cataract incidence [1]: 66%; Lung p16 mRNA [2]: 61 (±6.2) %; Col1a1 mRNA [2]: 68 (±7.5) %; Liver p16 mRNA [3]: 72 (±3.9) %; Col1a1 mRNA [3]: 65 (±7.2) %
CC12CCN(CC1)C(CNC(=O)C(F)(F)F)C2=O (stereo not shown) [LX-5706]	96.5	12.7		88.5	31	0.3	Femur Ctsk mRNA [1]: 68%; Heart Sur2a mRNA [1]: 2 fold; Joint Col2a1 mRNA [1]: 1.9 fold; Kidney Agtr1a mRNA [1]: 70%; Liver IL6 mRNA [1]: 71%; Liver MMP3 mRNA [1]: 60%; Liver p16 mRNA [1]: 64%; Open Field Test Time in Center [1]: 171%; Skin Col1a1 mRNA [1]: 1.6 Fold; Skin SDF1 mRNA [1]: 1.4 fold; Muscle Mass [1]: 0.69 g; Fat Mass [1]: 0.85 g; Cataract incidence [1]: 74%; Lung p16 mRNA [2]: 76 (±6.1) %; Col1a1 mRNA [2]: 79 (±5.2) %; Liver p16 mRNA [3]: 69 (±6.9) %; Col1a1 mRNA [3]: 70 (±4.8) %
CC12CCN(CC1)C(CN(C1CC1)S(C)(=O)=O)C2=O (stereo not shown) [LX-5707]	103	27.3		81	37.3	4.3	Femur Ctsk mRNA [1]: 64%; Heart Sur2a mRNA [1]: 2.3 fold; Joint Col2a1 mRNA [1]: 2.0 fold; Kidney Agtr1a mRNA [1]: 65%; Liver IL6 mRNA [1]: 61%; Liver MMP3 mRNA [1]: 63%; Liver p16 mRNA [1]: 59%; Open Field Test Time in Center [1]: 199%; Skin Col1a1 mRNA [1]: 1.7 Fold; Skin SDF1 mRNA [1]: 1.6 fold; Muscle Mass [1]: 0.70 g; Fat Mass [1]: 0.90 g; Cataract incidence [1]: 70%; Lung p16 mRNA [2]: 72 (±8.9) %; Col1a1 mRNA [2]: 69 (±7.1) %; Liver p16 mRNA [3]: 64 (±8.3) %; Col1a1 mRNA [3]: 72 (±9.6) %
CCOc1cc(CC(=O)N[C@@H](CC(C)C)c2ccccc2N2CCCCC2)ccc1C(=O)O [LX-9302, Repaglinide]	99.7	73.5	34.3	94.1	82.3	68.5	viability at 90 µM [5]: 11.8%
C=CC[C@@H]1/C=C(\C)C[C@H](C)C[C@H](OC)[C@H]2O[C@@](O)(C(=O)C(=O)N3CCCC[C@H]3C(=O)O[C@H](/C(C)=C/[C@@H]3CC[C@@H](O)[C@H](OC)C3)[C@H](C)[C@@H](O)CC1=O)[C@H](C)C[C@@H]2OC [LX-9314, Tacrolimus]	84.7	69.2	35.3	92.9	57.1	14.7	
O=C1[C@H](CC[C@H](O)c2ccc(F)cc2)[C@@H](c2ccc(O)cc2)N1c1ccc(F)cc1 [LX-9321, Ezetimibe]	98.3	86.4	79.6	108	91.4	65.8	viability at 90 µM [4]: 19.4%; viability at 90 µM [5]: 4.1%
COc1ccc(Cl)cc1C(=O)NCCc1ccc(S(=O)(=O)NC(=O)NC2CCCCC2)cc1 [LX-9335, glyburide]	85.2	56.3	12.2	90.2	60.8	13.8	
CN(C)C[C@@H]1CCn2cc(c3ccccc32)C2=C(C(=O)NC2=O)c2cn(c3ccccc23)CCO1 [LX-9339, Ruboxistaurin]	55.6			49.2			
CC(=O)NCCOC(=O)[C@H](Oc1cccc(C(F)(F)F)c1)c1ccc(Cl)cc1 [LX-9409, Arhalofenate]	80.5	65.7	15.3	72.7	51.9	8.7	
CCc1ccc(CCOc2ccc(CC3SC(=O)NC3=O)cc2)nc1 (stereo not shown) [LX-9422, Pioglitazone]	94.7	56.2	6.7	104	62.8	15.8	
CN1CCCC1 [LX-9425, N-methyl pyrrolidine]	102	97.5	66.8	97.5	100	68.2	
COc1ccccc1OCC(O)CN1CCN(CC(=O)Nc2c(C)cccc2C)CC1 (stereo not shown) [LX-9565, Ranolazine]	78.9	52.3	6.1	97	67.3	34.1	viability at 90 µM [5]: 3.6%
CC(C)(CCCCCC(O)CCCCCC(C)(C)C(=O)O)C(=O)O [LX-9602, Bempedoic acid]	113	102	92.2	101	96.4	75.4	viability at 90 µM [4]: 11.1%; viability at 90 µM [5]: 3.8%
CCCCC[C@H](O)CC[C@@H]1[C@H]2Cc3cccc(OCC(=O)O)c3C[C@H]2C[C@H]1O [LX-9713, Treprostinil]	1.8			28.4			
COc1c(C)c2c(c(O)c1C/C=C(\C)CCC(=O)O)C(=O)OC2 [LX-9725, Mycophenolic acid]	49.3			62.4			
CC[C@H]1[C@@H](O)[C@@H]2[C@H](CC[C@]3(C)[C@@H]([C@H](C)CCC(=O)O)CC[C@@H]23)[C@@]2(C)CC[C@@H](O)C[C@@H]12 [LX-9732, Obeticholic Acid]	95.7	46.4	3.8	97.5	51.3	7.9	
